Reference: PubChem BioAssay (NCI)
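A five-concentration, 48-hour dose response in 96-well plates underlies each endpoint, interpolated linearly between surrounding concentrations. Definition used: TGI = concentration required for complete inhibition of growth.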

Legend:
Test in all cases: DTP human tumour cell line panel, 48 h
[1] = tested on: 786-0 renal
[2] = tested on: A498 renal
[3] = tested on: A549 NSCLC
[4] = tested on: ACHN renal
[5] = tested on: BT-549 breast
[6] = tested on: CAKI-1 renal
[7] = tested on: CCRF-CEM leukemia
[8] = tested on: COLO 205 colon
[9] = tested on: DLD-1 colon
[10] = tested on: DMS 114 small cell lung
[11] = tested on: DMS 273 small cell lung
[12] = tested on: DU-145 prostate
[13] = tested on: EKVX NSCLC
[14] = tested on: HCC-2998 colon
[15] = tested on: HCT-116 colon
[16] = tested on: HCT-15 colon
[17] = tested on: HL-60(TB) leukemia
[18] = tested on: HOP-18 NSCLC
[19] = tested on: HOP-62 NSCLC
[20] = tested on: HOP-92 NSCLC
[21] = tested on: HS 578T breast
[22] = tested on: HT29 colon
[23] = tested on: IGROV1 ovarian
[24] = tested on: K-562 leukemia
[25] = tested on: KM12 colon
[26] = tested on: KM20L2 colon
[27] = tested on: LOX IMVI melanoma
[28] = tested on: LXFL 529 NSCLC
[29] = tested on: M14 melanoma
[30] = tested on: M19-MEL melanoma
[31] = tested on: MALME-3M melanoma
[32] = tested on: MCF7 breast
[33] = tested on: MDA-MB-231 breast
[34] = tested on: MDA-MB-435
[35] = tested on: MDA-N
[36] = tested on: MOLT-4 leukemia
[37] = tested on: NCI-H226 lung
[38] = tested on: NCI-H23 lung
[39] = tested on: NCI-H460 lung
[40] = tested on: NCI-H522 lung
[41] = tested on: NCI/ADR-RES ovarian
[42] = tested on: OVCAR-3 ovarian
[43] = tested on: OVCAR-4 ovarian
[44] = tested on: OVCAR-5 ovarian
[45] = tested on: OVCAR-8 ovarian
[46] = tested on: PC-3 prostate
[47] = tested on: RPMI-8226 leukemia
[48] = tested on: RXF 393 renal
[49] = tested on: SF-268 CNS
[50] = tested on: SF-295 CNS
[51] = tested on: SF-539 CNS
[52] = tested on: SK-MEL-2 melanoma
[53] = tested on: SK-MEL-28 melanoma
[54] = tested on: SK-MEL-5 melanoma
[55] = tested on: SK-OV-3 ovarian
[56] = tested on: SN12C renal
[57] = tested on: SNB-19 CNS
[58] = tested on: SNB-75 CNS
[59] = tested on: SNB-78 CNS
[60] = tested on: SR leukemia
[61] = tested on: SW-620 colon
[62] = tested on: T-47D breast
[63] = tested on: TK-10 renal
[64] = tested on: U251 CNS
[65] = tested on: UACC-257 melanoma
[66] = tested on: UACC-62 melanoma
[67] = tested on: UO-31 renal
[68] = tested on: XF 498 CNS

## CCOc1ccc(NC2=CC(=O)C(=O)c3ccccc32)cc1
[1]
  TGI: 13.7 µM
[2]
  TGI: 12.2 µM
[3]
  TGI: 7.65 µM
[4]
  TGI: 5.74 µM
[5]
  TGI: 3.02 µM
[6]
  TGI: 20.9 µM
[7]
  TGI: 56.8 µM
[8]
  TGI: 10.9 µM
[9]
  TGI: 21.7 µM
[10]
  TGI: 3.71 µM
[11]
  TGI: 8.01 µM
[12]
  TGI: 5.05 µM
[13]
  TGI: 30.9 µM
[14]
  TGI: 26 µM
[15]
  TGI: 10.1 µM
[16]
  TGI: 6.72 µM
[17]
  TGI: 4.13 µM
[18]
  TGI: 4.61 µM
[19]
  TGI: 12 µM
[20]
  TGI: 30.7 µM
[21]
  TGI: 5.9 µM
[22]
  TGI: 15.8 µM
[23]
  TGI: 16.9 µM
[24]
  TGI: 26.9 µM
[25]
  TGI: 12.2 µM
[26]
  TGI: 36.7 µM
[27]
  TGI: 2.77 µM
[28]
  TGI: 11.2 µM
[29]
  TGI: 3.27 µM
[30]
  TGI: 2.03 µM
[31]
  TGI: 3.56 µM
[32]
  TGI: 3.93 µM
[33]
  TGI: 54.5 µM
[34]
  TGI: 3.19 µM
[35]
  TGI: 3.94 µM
[36]
  TGI: 80.1 µM
[37]
  TGI: 13.3 µM
[38]
  TGI: 3.93 µM
[39]
  TGI: 6.97 µM
[40]
  TGI: 3.39 µM
[41]
  TGI: 11.3 µM
[42]
  TGI: 8.21 µM
[43]
  TGI: 7.8 µM
[44]
  TGI: 9.46 µM
[45]
  TGI: 15.4 µM
[46]
  TGI: 19.8 µM
[47]
  TGI: 26.2 µM
[48]
  TGI: 14.6 µM
[49]
  TGI: 22.4 µM
[50]
  TGI: 5.4 µM
[51]
  TGI: 4.18 µM
[52]
  TGI: 16.2 µM
[53]
  TGI: 7.22 µM
[54]
  TGI: 2.95 µM
[55]
  TGI: 24.9 µM
[56]
  TGI: 3.31 µM
[57]
  TGI: 9.46 µM
[58]
  TGI: 5.35 µM
[59]
  TGI: 39.5 µM
[60]
  TGI: 17.6 µM
[61]
  TGI: 3.53 µM
[62]
  TGI: 27.9 µM
[63]
  TGI: 21.6 µM
[64]
  TGI: 13.1 µM
[65]
  TGI: 3.04 µM
[66]
  TGI: 3.2 µM
[67]
  TGI: 13.5 µM
[68]
  TGI: 5.31 µM

## COc1cc(C2C(Cl)C(=O)N2n2cnc3ccccc3c2=O)ccc1O (stereo unspecified)
[1]
  TGI: > 100 µM
[3]
  TGI: > 100 µM
[4]
  TGI: > 100 µM
[6]
  TGI: > 100 µM
[7]
  TGI: > 100 µM
[8]
  TGI: > 100 µM
[9]
  TGI: > 100 µM
[10]
  TGI: > 100 µM
[11]
  TGI: > 100 µM
[13]
  TGI: > 100 µM
[14]
  TGI: > 100 µM
[15]
  TGI: > 100 µM
[16]
  TGI: > 100 µM
[18]
  TGI: > 100 µM
[19]
  TGI: > 100 µM
[22]
  TGI: > 100 µM
[23]
  TGI: > 100 µM
[25]
  TGI: > 100 µM
[26]
  TGI: > 100 µM
[27]
  TGI: > 100 µM
[28]
  TGI: > 100 µM
[29]
  TGI: > 100 µM
[30]
  TGI: > 100 µM
[31]
  TGI: > 100 µM
[36]
  TGI: > 100 µM
[37]
  TGI: > 100 µM
[38]
  TGI: > 100 µM
[39]
  TGI: > 100 µM
[40]
  TGI: > 100 µM
[42]
  TGI: > 100 µM
[43]
  TGI: > 100 µM
[44]
  TGI: > 100 µM
[45]
  TGI: > 100 µM
[47]
  TGI: > 100 µM
[48]
  TGI: > 100 µM
[49]
  TGI: > 100 µM
[50]
  TGI: > 100 µM
[52]
  TGI: > 100 µM
[53]
  TGI: > 100 µM
[54]
  TGI: > 100 µM
[55]
  TGI: > 100 µM
[56]
  TGI: > 100 µM
[57]
  TGI: > 100 µM
[58]
  TGI: > 100 µM
[59]
  TGI: > 100 µM
[60]
  TGI: > 100 µM
[61]
  TGI: > 100 µM
[63]
  TGI: > 100 µM
[64]
  TGI: > 100 µM
[65]
  TGI: 99.6 µM
[66]
  TGI: > 100 µM
[67]
  TGI: > 100 µM

## N#CCCC[Si]12OCCN(CCO1)CCO2
[1]
  TGI: > 100 µM
[2]
  TGI: > 100 µM
[3]
  TGI: > 100 µM
[4]
  TGI: > 100 µM
[6]
  TGI: > 100 µM
[7]
  TGI: > 100 µM
[8]
  TGI: > 100 µM
[9]
  TGI: > 100 µM
[10]
  TGI: > 100 µM
[11]
  TGI: > 100 µM
[13]
  TGI: > 100 µM
[14]
  TGI: > 100 µM
[15]
  TGI: > 100 µM
[17]
  TGI: > 100 µM
[18]
  TGI: > 100 µM
[20]
  TGI: > 100 µM
[22]
  TGI: > 100 µM
[23]
  TGI: > 100 µM
[24]
  TGI: > 100 µM
[25]
  TGI: > 100 µM
[28]
  TGI: > 100 µM
[30]
  TGI: > 100 µM
[31]
  TGI: > 100 µM
[36]
  TGI: > 100 µM
[37]
  TGI: > 100 µM
[38]
  TGI: > 100 µM
[39]
  TGI: > 100 µM
[40]
  TGI: > 100 µM
[42]
  TGI: > 100 µM
[44]
  TGI: > 100 µM
[45]
  TGI: > 100 µM
[47]
  TGI: > 100 µM
[48]
  TGI: > 100 µM
[49]
  TGI: > 100 µM
[50]
  TGI: > 100 µM
[51]
  TGI: > 100 µM
[52]
  TGI: > 100 µM
[53]
  TGI: > 100 µM
[54]
  TGI: > 100 µM
[55]
  TGI: > 100 µM
[56]
  TGI: > 100 µM
[57]
  TGI: > 100 µM
[58]
  TGI: > 100 µM
[59]
  TGI: > 100 µM
[60]
  TGI: > 100 µM
[61]
  TGI: > 100 µM
[63]
  TGI: > 100 µM
[64]
  TGI: > 100 µM
[65]
  TGI: > 100 µM
[66]
  TGI: > 100 µM
[67]
  TGI: > 100 µM
